Results as given in ChEMBL document CHEMBL1144931, “Synthesis, characterization, and biological properties of 8-azido- and 8-amino-substituted 2',5'-oligoadenylates” (J Med Chem, 2003).

Columns and labels:
[1] = target: T1, 2-5A-dependent ribonuclease (Mus musculus) (UniProt Q05921); assay: Relative displacement of [125I]-labeled 2-5A from Ribonuclease L of mouse liver compared to pApApA
T1 sequence (whole entry): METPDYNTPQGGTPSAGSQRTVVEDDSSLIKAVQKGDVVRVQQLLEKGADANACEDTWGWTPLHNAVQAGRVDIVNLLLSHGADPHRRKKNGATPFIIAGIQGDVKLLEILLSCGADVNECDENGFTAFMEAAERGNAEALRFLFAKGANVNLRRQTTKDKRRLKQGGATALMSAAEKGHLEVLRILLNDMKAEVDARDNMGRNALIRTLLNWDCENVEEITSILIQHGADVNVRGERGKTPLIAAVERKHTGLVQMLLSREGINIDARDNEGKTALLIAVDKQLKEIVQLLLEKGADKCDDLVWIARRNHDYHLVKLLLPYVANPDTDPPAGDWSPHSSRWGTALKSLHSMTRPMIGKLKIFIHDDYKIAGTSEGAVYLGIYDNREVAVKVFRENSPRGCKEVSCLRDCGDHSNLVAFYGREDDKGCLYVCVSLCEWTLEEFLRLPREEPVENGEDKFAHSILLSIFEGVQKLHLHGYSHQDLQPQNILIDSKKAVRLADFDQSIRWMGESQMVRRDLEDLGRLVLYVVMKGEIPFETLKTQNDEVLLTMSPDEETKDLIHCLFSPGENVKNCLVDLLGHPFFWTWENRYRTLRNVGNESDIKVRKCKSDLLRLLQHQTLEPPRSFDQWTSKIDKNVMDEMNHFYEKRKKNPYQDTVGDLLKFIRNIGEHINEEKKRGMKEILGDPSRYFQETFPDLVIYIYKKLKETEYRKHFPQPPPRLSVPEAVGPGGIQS

[2] = target: T2, 2-5A-dependent ribonuclease (Mus musculus, UniProt Q05921); assay: Displacement of [125I]-labeled 2-5A from 2-5A dependent Ribonuclease L (RNase L) of mouse liver
T2 sequence (Q05921 whole entry): T1 sequence (whole entry)

Compound	Relative activity [1]	IC50 [2]
Nc1ncnc2c1nc(N)n2C1O[C@H](COP(=O)(O)O[C@H]2C(n3c(N)nc4c(N)ncnc43)O[C@H](COP(=O)(O)O[C@H]3C(n4c(N)nc5c(N)ncnc54)O[C@H](COP(=O)(O)O[C@H]4C(n5c(N)nc6c(N)ncnc65)O[C@H](COP(=O)(O)O)[C@H]4O)[C@H]3O)[C@H]2O)[C@@H](O)[C@H]1O (stereo partly specified)	0.008	500 nM
[N-]=[N+]=Nc1nc2c(N)ncnc2n1[C@@H]1O[C@H](COP(=O)(O)O[C@@H]2[C@H](O)[C@@H](COP(=O)(O)O[C@@H]3[C@H](O)[C@@H](COP(=O)(O)O[C@@H]4[C@H](O)[C@@H](CO)O[C@H]4n4c(N=[N+]=[N-])nc5c(N)ncnc54)O[C@H]3n3c(N=[N+]=[N-])nc4c(N)ncnc43)O[C@H]2n2c(N=[N+]=[N-])nc3c(N)ncnc32)[C@@H](O)[C@H]1O	0.8	50 nM
Nc1ncnc2c1nc(N)n2C1O[C@H](COP(=O)(O)O[C@H]2C(n3c(N)nc4c(N)ncnc43)O[C@H](COP(=O)(O)O)[C@H]2O)[C@@H](O)[C@H]1O (stereo partly specified)	< 0.0004	> 10000 nM
Nc1ncnc2c1ncn2[C@@H]1O[C@H](COP(=O)(O)O[C@@H]2[C@H](O)[C@@H](COP(=O)(O)O[C@@H]3[C@H](O)[C@@H](COP(=O)(O)OP(=O)(O)OP(=O)(O)O)O[C@H]3n3cnc4c(N)ncnc43)O[C@H]2n2cnc3c(N)ncnc32)[C@@H](O)[C@H]1O	1.3	
Nc1ncnc2c1nc(N)n2C1O[C@H](COP(=O)(O)O[C@H]2C(n3c(N)nc4c(N)ncnc43)O[C@H](CO)[C@H]2O)[C@@H](O)[C@H]1O (stereo partly specified)	< 0.0004	> 10000 nM
[N-]=[N+]=Nc1nc2c(N)ncnc2n1C1O[C@H](COP(=O)(O)O[C@H]2C(n3c(N=[N+]=[N-])nc4c(N)ncnc43)O[C@H](CO)[C@H]2O)[C@@H](O)[C@H]1O (stereo partly specified)	< 0.0004	> 10000 nM
Nc1ncnc2c1nc(N)n2[C@@H]1O[C@H](COP(=O)(O)O[C@@H]2[C@H](O)[C@@H](COP(=O)(O)O[C@@H]3[C@H](O)[C@@H](COP(=O)(O)O[C@@H]4[C@H](O)[C@@H](CO)O[C@H]4n4c(N)nc5c(N)ncnc54)O[C@H]3n3c(N)nc4c(N)ncnc43)O[C@H]2n2c(N)nc3c(N)ncnc32)[C@@H](O)[C@H]1O	0.004	1000 nM
Nc1ncnc2c1nc(N)n2[C@@H]1O[C@H](COP(=O)(O)O[C@@H]2[C@H](O)[C@@H](COP(=O)(O)O[C@@H]3[C@H](O)[C@@H](CO)O[C@H]3n3c(N)nc4c(N)ncnc43)O[C@H]2n2c(N)nc3c(N)ncnc32)[C@@H](O)[C@H]1O	< 0.0004	> 10000 nM
[N-]=[N+]=Nc1nc2c(N)ncnc2n1[C@@H]1O[C@H](COP(=O)(O)O[C@@H]2[C@H](O)[C@@H](COP(=O)(O)O[C@@H]3[C@H](O)[C@@H](COP(=O)(O)O[C@@H]4[C@H](O)[C@@H](COP(=O)(O)O)O[C@H]4n4c(N=[N+]=[N-])nc5c(N)ncnc54)O[C@H]3n3c(N=[N+]=[N-])nc4c(N)ncnc43)O[C@H]2n2c(N=[N+]=[N-])nc3c(N)ncnc32)[C@@H](O)[C@H]1O	2	2 nM
[N-]=[N+]=Nc1nc2c(N)ncnc2n1C1OC(COP(=O)(O)O)C(O)C1OP(=O)(O)OCC1OC(n2c(N=[N+]=[N-])nc3c(N)ncnc32)C(OP(=O)(O)OC[C@H]2OC(n3c(N=[N+]=[N-])nc4c(N)ncnc43)[C@H](O)[C@@H]2O)C1O (stereo partly specified)	2	2 nM
[N-]=[N+]=Nc1nc2c(N)ncnc2n1C1O[C@H](COP(=O)(O)O[C@H]2C(n3c(N=[N+]=[N-])nc4c(N)ncnc43)OC(COP(=O)(O)O[C@H]3C(n4c(N=[N+]=[N-])nc5c(N)ncnc54)O[C@H](CO)[C@H]3O)[C@H]2O)[C@@H](O)[C@H]1O (stereo partly specified)	0.6	70 nM
Nc1ncnc2c1ncn2[C@@H]1O[C@H](CO[P@](=O)(O)O[C@@H]2[C@H](O)[C@@H](CO[P@](=O)(O)O[C@@H]3[C@H](O)[C@@H](CO[P@](=O)(O)O[P@@](=O)(O)OP(=O)(O)O)O[C@H]3n3cnc4c(N)ncnc43)O[C@H]2n2cnc3c(N)ncnc32)[C@@H](O)[C@H]1O		3 nM
[N-]=[N+]=Nc1nc2c(N)ncnc2n1C1O[C@H](COP(=O)(O)O[C@H]2C(n3c(N=[N+]=[N-])nc4c(N)ncnc43)O[C@H](COP(=O)(O)O)[C@H]2O)[C@@H](O)[C@H]1O (stereo partly specified)	0.0008	5000 nM
Nc1ncnc2c1nc(N)n2[C@@H]1O[C@H](COP(=O)(O)O[C@@H]2[C@H](O)[C@@H](COP(=O)(O)O[C@@H]3[C@H](O)[C@@H](COP(=O)(O)O)O[C@H]3n3c(N)nc4c(N)ncnc43)O[C@H]2n2c(N)nc3c(N)ncnc32)[C@@H](O)[C@H]1O	< 0.0004	> 10000 nM
